# Several values for one entry are separate records, joined by “and”; a condition that tells them apart may be missing. Equal entries are not always repeated. Where two headings read alike, the source gives them in different places.
# Key:
# [1] = Metabolic stability in pooled human liver microsomes; format: in vitro ADME; details: human, pooled human liver microsomes, pooled human liver microsomes 0.5 mg/mL, 1 μM test compound, 37° C., * rows = mean of two runs
# Protocol: Pooled human liver microsomes in PBS at a concentration of 0.5 mg/mL was incubated with or without 1 mM NADPH for 70 min at 37° C. Test compound was added after 10 minutes to a final concentration of 1 μM. Samples were withdrawn at 0, 5, 15 and 60 minutes and added to test tubes containing acetonitrile, to stop the reaction, and with terfenadine, used as internal standard. After centrifugation at 10 000×g for 5 minutes the supernatant was diluted 1:1 with 1% formic acid. Samples were separated on a reverse phase column and detected by triple quadrupole MSMS (Agilant model 6540). The concentration of the parent compound at the different time points was measured with an external standard curve using terfenadine as internal standard and the initial metabolic rate in the presence or absence of NADPH calculated.
# [2] = biological target: T1, human recombinant AT2 receptor (Homo sapiens, UniProt P50052); experiment: Binding to AT2 receptor, radiometric scintillation assay (Eurofins ITEM26); details: ligand 125I CGP 42112A, * rows = mean of runs; for Ki: seven-point dose-response curve; for IC50: test compounds at 1, 10, 100 and 1000 nM, read-out: AT2 GraFit IC50
# T1 construct: purchased Eurofins ITEM26 (protocol number)
# T1 sequence (P50052 1-363): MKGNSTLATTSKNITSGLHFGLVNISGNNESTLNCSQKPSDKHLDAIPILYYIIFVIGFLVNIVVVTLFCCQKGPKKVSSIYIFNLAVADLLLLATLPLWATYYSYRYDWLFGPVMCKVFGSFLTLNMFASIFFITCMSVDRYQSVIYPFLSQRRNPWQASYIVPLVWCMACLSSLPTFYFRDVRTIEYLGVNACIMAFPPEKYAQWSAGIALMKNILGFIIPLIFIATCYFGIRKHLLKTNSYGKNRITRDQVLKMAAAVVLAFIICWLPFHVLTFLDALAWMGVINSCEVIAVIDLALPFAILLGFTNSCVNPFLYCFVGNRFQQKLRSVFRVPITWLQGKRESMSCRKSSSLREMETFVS
# CYP1A2 = biological target: T2, CYP1A2 (Homo sapiens, UniProt P05177); experiment: in vitro; format: in vitro ADME; details: human liver microsomes, substrate phenacetin; for inhibition at 10 µM: human, microsomes, read-out: CYP1A2 Inh %
# T2 construct: isoform-specific substrates incubated with human liver microsomes; tissue Eurofins ITEMG232 (protocol number); host or cells: human liver microsomes
# Protocol: The following substrates were used; CYP1A phenacetin, CYP2B36 bupropion, CYP2C8 paclitaxel and amodiaquine, CYP2C9 diclofenac, CYP2C19 omeprazole, CYP2D6 dextromethorphan, CYP3A midazolam and testosterone.
# At the end of the incubation, the formation of metabolite was monitored by HPLC-MS/MS as the peak area response.
# CYP2B6 = biological target: T3, CYP2B6 (Homo sapiens, UniProt P20813); experiment: CYP inhibition in human liver microsomes (Eurofins ITEMG232); format: in vitro ADME; details: probe bupropion, substrate bupropion, read-out: CYP2B6 Inh %
# T3 construct: isoform-specific substrates incubated with human liver microsomes; tissue Eurofins ITEMG232 (protocol number); host or cells: human liver microsomes
# T3 sequence (P20813 1-491): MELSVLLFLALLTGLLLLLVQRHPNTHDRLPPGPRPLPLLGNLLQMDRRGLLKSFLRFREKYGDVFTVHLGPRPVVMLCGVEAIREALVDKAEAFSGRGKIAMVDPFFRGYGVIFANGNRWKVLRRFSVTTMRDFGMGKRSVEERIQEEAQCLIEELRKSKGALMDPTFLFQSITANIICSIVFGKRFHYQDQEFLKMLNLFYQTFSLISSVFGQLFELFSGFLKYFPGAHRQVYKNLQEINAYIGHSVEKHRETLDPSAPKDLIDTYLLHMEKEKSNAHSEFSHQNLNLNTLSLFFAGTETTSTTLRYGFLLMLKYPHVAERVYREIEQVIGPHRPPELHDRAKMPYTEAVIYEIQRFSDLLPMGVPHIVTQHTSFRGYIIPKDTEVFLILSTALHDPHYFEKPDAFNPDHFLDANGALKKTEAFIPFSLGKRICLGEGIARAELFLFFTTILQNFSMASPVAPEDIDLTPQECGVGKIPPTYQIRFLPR
# CYP2C19 = biological target: T4, CYP2C19 (Homo sapiens, UniProt P33261); experiment: as above; format: in vitro ADME; details: substrate omeprazole; for inhibition at 10 µM: human, probe omeprazole, read-out: CYP2C19 Inh %
# T4 construct: isoform-specific substrates incubated with human liver microsomes; tissue Eurofins ITEMG232 (protocol number); host or cells: human liver microsomes
# CYP2C8 = biological target: T5, CYP2C8 (Homo sapiens, UniProt P10632); experiment: as above; format: in vitro ADME; details: substrate paclitaxel and amodiaquine; for inhibition at 10 µM: human, probe paclitaxel and amodiaquine, read-out: CYP2C8 Inh %
# T5 construct: isoform-specific substrates incubated with human liver microsomes; tissue Eurofins ITEMG232 (protocol number); host or cells: human liver microsomes
# T5 sequence (P10632 1-490): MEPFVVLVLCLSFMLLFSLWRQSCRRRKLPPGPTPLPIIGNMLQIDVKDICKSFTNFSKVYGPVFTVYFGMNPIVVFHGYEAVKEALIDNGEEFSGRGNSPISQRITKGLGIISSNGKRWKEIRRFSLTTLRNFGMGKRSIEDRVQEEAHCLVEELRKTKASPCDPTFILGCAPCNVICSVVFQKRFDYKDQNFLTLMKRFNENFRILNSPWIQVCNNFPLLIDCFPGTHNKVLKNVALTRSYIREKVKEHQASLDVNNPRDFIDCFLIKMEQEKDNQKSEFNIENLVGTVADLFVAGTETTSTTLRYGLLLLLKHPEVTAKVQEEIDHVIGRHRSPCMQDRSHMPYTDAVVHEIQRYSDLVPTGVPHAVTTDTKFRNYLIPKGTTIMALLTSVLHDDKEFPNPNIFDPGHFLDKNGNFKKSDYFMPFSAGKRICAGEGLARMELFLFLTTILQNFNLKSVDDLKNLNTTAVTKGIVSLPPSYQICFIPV
# CYP2D6 = biological target: T6, CYP2D6 (Homo sapiens, UniProt P10635); experiment: as above; format: in vitro ADME; details: probe dextromethorphan, substrate dextromethorphan, read-out: CYP2D6 Inh %
# T6 construct: isoform-specific substrates incubated with human liver microsomes; tissue Eurofins ITEMG232 (protocol number); host or cells: human liver microsomes
# CYP3A4&5 = experiment: in vitro; details: human, human liver microsomes, probe testosterone;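 further: Read-out is the metabolite generated from the probe substrate, quantified as HPLC-MS/MS peak area once incubation ends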
# CYP2C9 = CYP2C9 (Homo sapiens, UniProt P11712); experiment: CYP inhibition in human liver microsomes (Eurofins ITEMG232); format: in vitro ADME; set-up: isoform-specific substrates incubated with human liver microsomes; tissue Eurofins ITEMG232 (protocol number); host or cells: human liver microsomes; details: substrate diclofenac; for inhibition at 10 µM: human, probe diclofenac, read-out: CYP2C9 Inh %
# CYP3A4 = CYP3A4 (Homo sapiens, UniProt P08684); experiment: CYP inhibition in human liver microsomes (Eurofins ITEMG232), midazolam substrate; format: in vitro ADME; set-up: isoform-specific substrates incubated with human liver microsomes; tissue Eurofins ITEMG232 (protocol number); host or cells: human liver microsomes; details: for inhibition at 10 µM: human, probe midazolam, read-out: CYP3A4 midazolam Inh %
# [3] = with 1 mM NADPH, read-out: T1/2, + NaDPH
# [4] = without NADPH, read-out: T1/2, no NaDPH
# T6 sequence (P10635 whole entry, canonical isoform): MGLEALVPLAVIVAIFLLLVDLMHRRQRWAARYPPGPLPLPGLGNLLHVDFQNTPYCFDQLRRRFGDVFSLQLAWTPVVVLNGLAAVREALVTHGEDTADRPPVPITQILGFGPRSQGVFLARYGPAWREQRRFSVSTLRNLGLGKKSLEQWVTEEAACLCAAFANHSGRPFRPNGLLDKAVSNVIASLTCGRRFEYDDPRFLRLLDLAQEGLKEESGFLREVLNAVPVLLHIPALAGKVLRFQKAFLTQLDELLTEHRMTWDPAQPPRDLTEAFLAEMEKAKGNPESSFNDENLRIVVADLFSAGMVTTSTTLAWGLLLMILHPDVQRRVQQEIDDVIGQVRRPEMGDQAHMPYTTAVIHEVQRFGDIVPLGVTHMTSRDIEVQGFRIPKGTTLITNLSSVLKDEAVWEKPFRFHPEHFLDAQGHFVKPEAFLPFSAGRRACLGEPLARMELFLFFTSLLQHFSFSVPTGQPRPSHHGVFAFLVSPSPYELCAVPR
# T2 sequence (P05177 whole entry, canonical isoform): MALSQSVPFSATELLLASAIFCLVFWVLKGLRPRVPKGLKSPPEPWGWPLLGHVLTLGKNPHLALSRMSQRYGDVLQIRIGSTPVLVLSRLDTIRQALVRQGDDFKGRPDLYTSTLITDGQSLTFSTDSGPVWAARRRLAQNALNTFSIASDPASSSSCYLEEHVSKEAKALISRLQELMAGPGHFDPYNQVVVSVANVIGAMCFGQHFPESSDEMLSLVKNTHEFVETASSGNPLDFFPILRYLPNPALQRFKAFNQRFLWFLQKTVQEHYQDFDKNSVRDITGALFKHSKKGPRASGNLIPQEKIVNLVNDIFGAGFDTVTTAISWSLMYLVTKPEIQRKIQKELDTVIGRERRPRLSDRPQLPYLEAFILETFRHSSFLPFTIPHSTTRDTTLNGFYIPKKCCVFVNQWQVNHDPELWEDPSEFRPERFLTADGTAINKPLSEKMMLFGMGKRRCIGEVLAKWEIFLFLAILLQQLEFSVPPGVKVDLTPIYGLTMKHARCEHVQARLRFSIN
# T4 sequence (P33261 whole entry, canonical isoform): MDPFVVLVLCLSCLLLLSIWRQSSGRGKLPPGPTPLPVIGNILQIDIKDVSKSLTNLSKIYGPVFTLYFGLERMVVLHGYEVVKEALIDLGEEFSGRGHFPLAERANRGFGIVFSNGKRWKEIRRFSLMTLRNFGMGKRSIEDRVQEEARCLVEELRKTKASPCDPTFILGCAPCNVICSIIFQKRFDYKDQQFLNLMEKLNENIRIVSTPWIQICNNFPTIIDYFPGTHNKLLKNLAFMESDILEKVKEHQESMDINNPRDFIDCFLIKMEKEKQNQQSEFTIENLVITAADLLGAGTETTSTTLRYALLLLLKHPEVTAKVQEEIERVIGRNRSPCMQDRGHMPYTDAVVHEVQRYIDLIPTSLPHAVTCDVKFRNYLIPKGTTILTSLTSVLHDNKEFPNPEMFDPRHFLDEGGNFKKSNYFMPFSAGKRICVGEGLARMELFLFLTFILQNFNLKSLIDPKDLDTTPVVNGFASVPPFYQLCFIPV
# CYP3A4, sequence (P08684 whole entry, canonical isoform): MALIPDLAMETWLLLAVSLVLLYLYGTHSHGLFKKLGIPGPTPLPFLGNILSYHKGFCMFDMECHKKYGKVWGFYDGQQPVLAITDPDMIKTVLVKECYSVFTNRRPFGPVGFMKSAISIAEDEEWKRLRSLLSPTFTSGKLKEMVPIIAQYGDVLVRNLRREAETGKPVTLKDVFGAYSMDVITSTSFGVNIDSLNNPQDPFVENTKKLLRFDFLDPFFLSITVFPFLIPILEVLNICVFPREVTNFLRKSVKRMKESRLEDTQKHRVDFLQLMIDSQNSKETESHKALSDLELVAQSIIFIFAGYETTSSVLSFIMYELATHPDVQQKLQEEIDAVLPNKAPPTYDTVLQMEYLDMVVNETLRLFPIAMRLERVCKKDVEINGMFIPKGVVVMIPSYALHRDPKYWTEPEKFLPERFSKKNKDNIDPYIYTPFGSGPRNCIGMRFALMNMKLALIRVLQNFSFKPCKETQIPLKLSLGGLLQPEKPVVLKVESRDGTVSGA
# CYP2C9, sequence (P11712 whole entry, canonical isoform): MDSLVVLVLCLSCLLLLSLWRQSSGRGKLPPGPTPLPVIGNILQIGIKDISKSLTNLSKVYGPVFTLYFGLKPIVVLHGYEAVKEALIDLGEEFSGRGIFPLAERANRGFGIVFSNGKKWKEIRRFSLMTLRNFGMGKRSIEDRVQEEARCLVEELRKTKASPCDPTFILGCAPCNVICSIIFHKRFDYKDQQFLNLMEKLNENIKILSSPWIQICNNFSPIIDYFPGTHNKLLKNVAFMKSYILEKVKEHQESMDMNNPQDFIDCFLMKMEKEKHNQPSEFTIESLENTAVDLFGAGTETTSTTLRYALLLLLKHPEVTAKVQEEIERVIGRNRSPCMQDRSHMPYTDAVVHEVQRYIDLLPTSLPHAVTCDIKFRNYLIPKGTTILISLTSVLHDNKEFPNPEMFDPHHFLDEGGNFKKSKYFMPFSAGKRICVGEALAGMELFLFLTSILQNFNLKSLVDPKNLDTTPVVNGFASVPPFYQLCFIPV
Structure (SMILES),"half-life at 1 μM [1, 3]","half-life at 1 μM [1, 4]",Ki [2],IC50 [2],inhibition at 10 µM (CYP1A2),inhibition at 10 µM (CYP2B6),inhibition at 10 µM (CYP2C19),inhibition at 10 µM (CYP2C8),inhibition at 10 µM (CYP2D6),inhibition at 10 µM (CYP3A4&5),inhibition at 10 µM (CYP2C9),inhibition at 10 µM (CYP3A4),CYP1A2 Inh % (CYP1A2; 10 μM),CYP2C19 Inh % (CYP2C19; 10 μM),CYP2C8 Inh % (CYP2C8; 10 μM),CYP2C9 Inh % (CYP2C9; 10 μM),CYP3A4 midazolam Inh % (CYP3A4; 10 μM)
"CC(C)Cc1ccc(S(=O)(=O)Nc2ncc(Br)cn2)c(-c2ccc(Cn3ccnc3C(C)(C)C)cc2)c1 [Example 1, N-(5-Bromopyrimidin-2-yl)-4′-((2-(tert-butyl)-1H-imidazol-1-yl)methyl)-5-isobutyl-[1,1′-biphenyl]-2-sulfonamide]",> 1 h,> 1 h,2.12 nM,4.2 nM,85.4%,19.5%,37.2%,87.8%,14.1%,18.2%,60.5%,41.7%,–,–,–,–,–
"CC(C)Cc1ccc(S(=O)(=O)Nc2ncc(Cl)cn2)c(-c2ccc(Cn3ccnc3C(C)(C)C)cc2)c1 [Example 2, 4′-((2-(tert-Butyl)-1H-imidazol-1-yl)methyl)-N-(5-chloropyrimidin-2-yl)-5-isobutyl-[1,1′-biphenyl]-2-sulfonamide]",> 1 h,> 1 h,–,–,84%,14%,37%,88.7%,5.7%,3.3%,46%,36%,–,–,–,–,–
"CC(C)Cc1ccc(S(=O)(=O)Nc2nccs2)c(-c2ccc(Cn3ccnc3C(C)(C)C)cc2)c1 [Example 5, 4′-((2-(tert-Butyl)-1H-imidazol-1-yl)methyl)-5-isobutyl-N-(thiazol-2-yl)-[1,1′-biphenyl]-2-sulfonamide]",0.717 h,> 1 h,–,–,19.2%,56.5%,70.1%,92.1%,44.5%,56%,72.9%,-11.4%,–,–,–,–,–
"CC(C)Cc1ccc(S(=O)(=O)Nc2ncc(C#N)cn2)c(-c2ccc(Cn3ccnc3C(C)(C)C)cc2)c1 [Example 6, 4′-((2-(tert-Butyl)-1H-imidazol-1-yl)methyl)-N-(5-cyanopyrimidin-2-yl)-5-isobutyl-[1,1′-biphenyl]-2-sulfonamide]",–,–,–,–,–,–,–,–,–,–,–,–,36.2% and 65.6%,38.6% and 66.6%,49.2% and 95.6%,37.1% and 71.9%,28.2% and 48.5%
"CC(C)Cc1ccc(S(=O)(=O)Nc2nccs2)c(-c2ccc(Cn3ccnc3C(C)(C)C)c(F)c2)c1 [Example 8, 4′-((2-(tert-Butyl)-1H-imidazol-1-yl)methyl)-3′-fluoro-5-isobutyl-N-(thiazol-2-yl)-[1,1′-biphenyl]-2-sulfonamide]",0.567 h,> 1 h,2.92 nM,5.85 nM,43%,55%,71.2%,88.3%,32.6%,42.6%,86.6%,0.4%,–,–,–,–,–
"COc1ncncc1NS(=O)(=O)c1ccc(CC(C)C)cc1-c1ccc(Cn2ccnc2C(C)(C)C)cc1 [Example 18, 4′-((2-(tert-Butyl)-1H-imidazol-1-yl)methyl)-5-isobutyl-N-(4-methoxypyrimidin-5-yl)-[1,1′-biphenyl]-2-sulfonamide]",0.117 h,> 1 h,–,–,9.7%,40.4%,87.8%,59.7%,16.4%,97.9%,90.8%,98.4%,–,–,–,–,–
"COc1ncnc(OC)c1NS(=O)(=O)c1ccc(CC(C)C)cc1-c1ccc(Cn2ccnc2C(C)(C)C)cc1 [Example 19, 4′-((2-(tert-Butyl)-1H-imidazol-1-yl)methyl)-N-(4,6-dimethoxypyrimidin-5-yl)-5-isobutyl-[1,1′-biphenyl]-2-sulfonamide]",0.15 h,> 1 h,–,–,21.7%,27.5%,74.8%,54.3%,45.2%,63%,87.6%,73%,–,–,–,–,–
"Cc1nccn1Cc1ccc(-c2cc(CC(C)C)sc2S(=O)(=O)Nc2ncccn2)cc1F [Example 44, 3-(3-Fluoro-4-((2-methyl-1H-imidazol-1-yl)methyl)phenyl)-5-isobutyl-N-(pyrimidin-2-yl)thiophene-2-sulfonamide]",> 1 h,> 1 h,–,–,33%,14%,64%,43%,9%,67%,30%,35%,–,–,–,–,–
"CCc1nccn1Cc1ccc(-c2cc(CC(C)C)sc2S(=O)(=O)Nc2ncccn2)cc1F [Example 45, 3-(4-((2-Ethyl-1H-imidazol-1-yl)methyl)-3-fluorophenyl)-5-isobutyl-N-(pyrimidin-2-yl)thiophene-2-sulfonamide]",> 1 h,> 1 h,–,–,54%,16%,65%,64%,13%,62%,20%,15%,–,–,–,–,–

# From patent publication US12441718B2, “Selective angiotensin II compounds” (VICORE PHARMA AB, priority 2021, dated 2025)
